Data reported in patent US9249153B2, “Pharmaceutical composition for treating aging-associated diseases, containing progerin expression inhibitor as active ingredient, and screening method of said progerin expression inhibitor” (PUSAN NATIONAL UNIVERSITY INDUSTRY-UNIVERSITY COOPERATION …, priority 2011, dated 2016).
Each block holds one compound with its values, some of them ahead of it.

Key:
[1] = test system: transcriptional activity of p53; assay: p21-luc luciferase assay; assay type: cell-based; conditions: C2 cells, Adr treatment
[2] = test system: p53; assay: p53 induction in human fibroblasts (normal, HGPS, WS); assay type: cell-based
Protocol: Whole cell lysates were prepared in RIPA buffer, and centrifuged at 14,000 rpm for 30 min. Twenty micrograms of cell extracts were separated by SDS-polyacrylamide gel electrophoresis and transferred onto a PVDF membrane. The membrane was incubated for 1 hr to overnight at 4° C. with an appropriated primary antibody, followed by reaction with a secondary antibody at room temperature for 1 hr. Peroxidase activity was detected by chemiluminescence with an ECL kit (Intron) as recommended by the manufacturer.
The molecular mechanism of the inhibitory activity of progerin against p53 was scrutinized and p53 responsibility to DNA damage was determined in human progeria cell lines (HGPS and WS). […] WS cells are known to be insensitive to DNA damage-induced p53 activation, and as previously observed, WS cells can also express progerin.
Keeping in mind the fact that p53 is tightly regulated by the MDM2 pathway, the engagement of progerin with MDM2-mediated p53 suppression was also tested by treatment of Nutlin-3, which is a blocker between MDM2 and p53 and induces p53 expression. […] Considering the results, the elevated expression of progerin would be involved in DNA damage-induced p53 activation and MDM2-mediaeted p53 suppression.

[3] = test system: RCC; assay: nuclear irregularity of RCC (Example 2); assay type: cell-based, human
Protocol: Based on our observation that the nuclear irregularity of RCC is caused by progerin and improved by FTI, the JH compounds were also examined for effect on RCC. Like FTI, the JH compounds ameliorated nuclear irregularity (FIG. 25). […] They were tested in vivo.

[4] = biological target: T1, Prg-LMN A binding (Homo sapiens, UniProt P02545); conditions: GST-pull down, cell lysate
T1 sequence (P02545 515-614 isoform P02545-6 limits assumed): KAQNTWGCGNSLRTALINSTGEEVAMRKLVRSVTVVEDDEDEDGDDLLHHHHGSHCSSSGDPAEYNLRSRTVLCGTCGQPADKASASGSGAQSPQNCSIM

[5] = biological target: T2, progerin-Lamin A binding (Homo sapiens, UniProt P02545); assay: ELISA-based screening of LMN A-Prg binding inhibitors; conditions: 0.1 mM final concentration
T2 sequence (P02545 515-614 isoform P02545-6 limits assumed): T1 sequence (P02545 515-614 isoform P02545-6 limits assumed)
Protocol: To isolate a Lamin A-Prg binding inhibitor, ELISA analysis was carried out. GST-progerin-C or LMN A-His was fixed with 0.5% paraformaldehyde on 96-well plates. After drying and washing steps, lysates of HEK 293 cells transfected with GFP-Lamin A, GST-Lamin A-C, or GST-progerin-C were incubated for 1 hr with a 0.1 mM (final concentration) binding inhibitor of the present invention. The 96-well plates were washed with TBST, followed by reaction with an anti-GFP-Ab (1:10,000, 45 min), an anti-GST-Ab (1:10,000, 45 min) and an anti-mouse-IgG-HRP (1:50,000, 30 min). The plates were washed twice, and incubated with a TMB solution (Calbiochem) and then with a stop solution (1 N H2SO4). Absorbance was read on an ELISA reader.
If progerin-induced senescence is mediated by binding LMN A, an inhibitor against binding between LMN A and progerin would block the progerin-induced pathological features. […] In this regard, an ELISA-based screening system was established. Briefly, progerin immobilized in 96-well plates was incubated with candidates from a chemical library, together with GFP-LMN A. Subsequently, association between progerin and the GFP protein was monitored in the presence of the inhibitor candidates (FIG. 15A). From the chemical library, four effective different compounds (JH-0307809; JH1, JH-02051109; JH13, JH-03070708; JH4, and LG-02-089-23; LG-02) were selected (FIGS. 15B and 16B), and analyzed by the monitoring (FIG. 16A). […] Their cytotoxicity was evaluated by MTT assay (FIGS. 15B and 16C).

[6] = test system: HGPS cells; assay: nuclear LMN A/C staining in two kinds of HGPS cells; assay type: cell-based, human; conditions: for nuclear deformation: two kinds of HGPS cells, incubation for 24 hrs
[7] = biological target: LMN A-progerin binding (Homo sapiens, UniProt P02545); conditions: in vitro binding assay
[8] = biological target: self association of LMN A (Homo sapiens, UniProt P02545)
[9] = test system: association between LMN A and LMN B
[10] = test system: HGPS cells; assay: cell counting, HGPS cells; assay type: cell-based, human
Protocol: (§1) For cell counting, cells were harvested from media, and stained for 10 min at room temperature with Trypan blue. Viable cells were counted using a hemocytometer.

[11] = test system: normal fibroblasts; assay: cell counting, normal fibroblasts; assay type: cell-based, human
Protocol: as §1

[12] = test system: HGPS and normal cells; assay: senescence-specific β-galactosidase staining (SA-β-Gal); assay type: cell-based, human
Protocol: For senescence-specific acidic-β-galactosidase activity staining, cells were washed once with PBS (pH 7.2) and fixed with PBS containing 0.5% glutaraldehyde. After being washed with PBS, the cells were stained overnight at 37° C. in an X-gal solution (Senescence β-Galactosidase Staining kit; Cell Signaling Technology).

[13] = test system: LMN A mutants
[14] = test system: p53; assay: p53 expression and DNA damage response in RCC cell lines; assay type: cell-based, human; conditions: C2 and Caki-2 cell lines

self association of LMN A, sequence (P02545 whole entry): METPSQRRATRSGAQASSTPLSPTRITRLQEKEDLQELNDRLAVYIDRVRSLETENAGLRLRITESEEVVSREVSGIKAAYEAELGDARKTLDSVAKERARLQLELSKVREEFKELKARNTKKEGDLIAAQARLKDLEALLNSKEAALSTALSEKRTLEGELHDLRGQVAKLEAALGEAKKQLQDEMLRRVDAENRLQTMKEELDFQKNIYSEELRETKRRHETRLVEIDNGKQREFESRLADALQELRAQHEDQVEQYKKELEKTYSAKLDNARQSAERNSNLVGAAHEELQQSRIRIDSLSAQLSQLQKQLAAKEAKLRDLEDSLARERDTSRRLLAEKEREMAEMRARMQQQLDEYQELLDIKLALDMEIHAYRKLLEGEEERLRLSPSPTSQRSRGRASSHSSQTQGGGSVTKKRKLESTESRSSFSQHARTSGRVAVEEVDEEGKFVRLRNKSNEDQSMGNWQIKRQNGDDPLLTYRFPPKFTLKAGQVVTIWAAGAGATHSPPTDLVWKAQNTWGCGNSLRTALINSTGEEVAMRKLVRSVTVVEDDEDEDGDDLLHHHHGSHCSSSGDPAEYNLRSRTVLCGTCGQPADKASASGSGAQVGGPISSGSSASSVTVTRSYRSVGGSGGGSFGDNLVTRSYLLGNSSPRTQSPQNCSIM

Compound: COc1cccc2c1C(=O)c1c(O)c3c(c(O)c1C2=O)C[C@@](O)(C(=O)CO)C[C@@H]3O[C@H]1C[C@H](N)[C@H](O)[C@H](C)O1 [Adr, adriamycin]
p21-luc expression / activation [1]: did not increase p21-luc expression
p53 induction ([2]; HGPS cells): did not show the induction of p53
p53 induction ([2]; Werner syndrome (WS) cells): did not show the induction of p53
p53 induction ([2]; normal cells): obviously increased

Compound: COC(=O)[C@H](CCSC)NC(=O)c1ccc(NC[C@@H](N)CS)cc1-c1ccccc1 [FTI]
nuclear irregularity of RCC [3]: improved
blocking of Prg-LMN A interaction [4]: block the interaction, but slightly

Compound: CC1(C)Oc2ccc3oc(=O)ccc3c2C[C@@H]1OC(=O)C=Cc1ccc(O)c(O)c1 [LG-02, (6S)-(−)-3-(3,4-Dihydroxy-phenyl)-acrylic acid, 7,7-dimethyl-2-oxo-5,6-dihydro-7H-pyrano[3,2-f]chromen-6-yl-ester]
inhibition of association between immobilized progerin and GFP-LMN A (screening) [5]: effective

Compound: COc1ccc(C2=N[C@@H](c3ccc(Cl)cc3)[C@@H](c3ccc(Cl)cc3)N2C(=O)N2CCNC(=O)C2)c(OC(C)C)c1 [Nutlin-3]
p53 induction [14]: did not induce p53 obviously
p53 induction ([2]; HGPS cells): partial response
p53 induction ([2]; normal cells): induced p53 obviously

The next lines start with results.

inhibition of association between immobilized progerin and GFP-LMN A (screening) [5]: effective
Compound: CC1(C)Oc2cc3oc(=O)ccc3cc2C[C@@H]1OC(=O)CCc1ccc(O)c(O)c1 [JH1, (7S)-(+)-3-(3,4-Dihydroxyphenyl)propionic acid, 8,8-dimethyl-2-oxo-6,7-dihydro-2H,8H-pyrano[3,2-g]chromen-7-yl-ester]
nuclear deformation [6]: ameliorated the nuclear deformation

inhibition of association between immobilized progerin and GFP-LMN A (screening) [5]: effective
inhibitory activity against LMN A-progerin binding [7]: block LMN A-progerin binding
disruption of self association of LMN A [8]: did not disrupt
Compound: CC1(C)Oc2cc3oc(=O)ccc3cc2C[C@@H]1OC(=O)C=Cc1cccnc1 [JH4, (7S)-(+)-3-(3-Pyridyl)-acrylic acid, 8,8-dimethyl-2-oxo-6,7-dihydro-2H,8H-pyrano[3,2-g]chromen-7-yl-ester]
disruption of association between LMN A and LMN B [9]: did not disrupt
nuclear deformation, effect relative to the other compounds ([6]; HGPS cells (FIG. 17D)): more obvious effect than the other compounds
nuclear deformation [6]: ameliorated the nuclear deformation
cell proliferation [10]: promoted cell proliferation
cell proliferation [11]: induced cell proliferation
SA-β-gal [12]: could suppress SA-β-gal
effect on LMN A mutants related with laminopathy [13]: did not show a favorable effect

inhibition of association between immobilized progerin and GFP-LMN A (screening) [5]: effective
inhibitory activity against LMN A-progerin binding [7]: block LMN A-progerin binding
Compound: CC1(C)Oc2cc3oc(=O)ccc3cc2C[C@@H]1OC(=O)C=Cc1ccc(O)c(O)c1 [JH13, (7S)-(+)-3-(3,4-Dihydroxy-phenyl)-acrylic acid, 8,8-dimethyl-2-oxo-6,7-dihydro-2H,8H-pyrano[3,2-g]chromen-7-yl-ester]
nuclear deformation [6]: ameliorated the nuclear deformation
blocking of Prg-LMN A interaction [4]: blocking ability of JH4 and JH13 was also demonstrated
